Source: US11325913B2, “Compounds and methods for the treatment of malaria” (THE BROAD INSTITUTE, INC., priority 2013, dated 2022)

How the values were obtained:
P. falciparum Dd2 = assay: Activity against the Dd2 strain of P. falciparum (SYBR Green I, 72 h); assay type: cell-based; settings: Plasmodium falciparum, DD2, 72 h, P. falciparum Dd2, 72 h incubation
Procedure, shortened: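 Parasites in human RBCs at 1% parasitemia and 1.0% hematocrit, exposed to compounds (0.125% DMSO) for 72 h at 37°C under 93% N2/4% CO2/3% O2. SYBR Green I in saponin/Triton lysis buffer added, 24 h staining, fluorescence read at 485/530 nm. EC50 derived against 20 μM mefloquine background and DMSO baseline.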

[1] = system: P. berghei (ANKA GFP-luc) blood stage parasites; assay: Single dose in vivo efficacy, P. berghei blood stage, bioluminescence imaging; parameters: species or system CD-1 mice
Protocol: CD-1 mice (female, 6-7-week-old) were inoculated with 1×10^6 P. berghei (ANKA GFP-luc) blood stage parasites intravenously 24 hours before treatment and compounds were administered as a single 100 or 50 mg/kg dose orally at 0 hour. Parasitemia was monitored by the In vivo Imaging System (IVIS 100, Xenogen; Caliper Life Science) to acquire the bioluminescence signal. Animals with parasitemia exceeding 25% were euthanized.
Infection proceeds rapidly in untreated mice (control), which were euthanized around day 6 of the study. Compound 37 and 68 were tested at different times; thus the artesunate control (ART) is shown for each compound. […] All images are normalized to the same color scale.

[2] = system: P. berghei (ANKA GFP-luc); assay: Prevention of transmission of P. berghei to mosquitoes (oocyst count in midguts); assay type: in vivo, CD-1 mice / Anopheles stephensi mosquitoes; settings: single ascending doses (all doses), mosquitoes fed Day 2, midguts dissected Day 9
Protocol: CD-1 mice were infected with P. berghei (ANKA GFP-luc) for 96 hours prior to treatment with vehicle [70% PEG400 and 30% (5% glucose in H2O)] or single ascending doses of compound 37 (Day 0). Average % parasitemia on Day 0 was 2.1%. On Day 2 of the study, mice were anesthetized and female Anopheles stephensi mosquitoes were allowed to feed on the mice for 20 minutes. On Day 9, the midguts of the mosquitoes were dissected out, and oocysts were enumerated microscopically (12.5× magnification, oocysts visible as puncta in the control, FIG. 2, Panel A).

[3] = system: P. berghei (ANKA luc-GFP) sporozoites; assay: In vivo P. berghei liver stage assay; parameters: species or system CD-1 mice; settings: single PO dose
Protocol: CD-1 mice were inoculated (IV) with 1×10^5 P. berghei (ANKA luc-GFP) sporozoites freshly dissected out from A. stephensi and immediately treated with a single dose (PO) of vehicle or compound 37 (25, 5.0, 1.0 or 0.2 mg/kg) at 0 hour. Bioluminescence signals from the transgenic parasites were monitored by the In vivo Imaging System (IVIS 100, Xenogen; Caliper Life Science).
The ED50 for compound 37 in this assay was 1 mg/kg.

COc1ccc(NC(=O)N2CCCCN3[C@H](CN)[C@H](c4ccc(C#Cc5ccccc5)cc4)[C@@H]3C2)cc1 [Compound 37, (8R,9S,10S)-10-(aminomethyl)-N-(4-methoxyphenyl)-9-[4-(2-phenylethynyl)phenyl]-1,6-diazabicyclo[6.2.0] decane-6-carboxamide]
EC50 (P. falciparum Dd2): 148 nM | time parasitemia repressed ([1]; single 100 mg/kg oral dose): about 1 week | ED25 ([1]; single oral dose, P. berghei blood stage): 100 mg/kg | oocysts in mosquito midguts [2]: no detectable oocysts | ED50 ([3]; Plasmodium berghei, in Mus musculus, liver stage): 1 mg/kg | parasitemia after sporozoite inoculation ([3]; dosed at ≥5 mg/kg): remained parasite free
